According to PMC10952572, “Improved PIEZO1 agonism through 4‐benzoic acid modification of Yoda1” (British Journal of Pharmacology, 2023):

Assays:
[1] = In-house aqueous solubility in universal aqueous buffer; format: physicochemical; conditions: for Solubility in aqueous buffer relative to Yoda1: universal aqueous buffer pH 7.4
Description: Standard curves for each test compound were constructed. DMSO‐dissolved test compounds were added to universal aqueous buffer (45 mM ethanolamine, 45 mM KH2PO4 and 45 mM KOAc, pH 7.4): acetonitrile 80:20 (298.5 μl) at a final DMSO concentration of 0.5%. Samples were incubated at room temperature with 300 rpm shaking for 30 min; 200 μl of each well was transferred to a 96‐well polypropylene V‐bottomed collection plate, and absorbance readings were taken at 250–500 nm in 10 nm increments. Thus, the λ max was identified at which concentration versus absorbance was plotted to provide standard curves.
After filtration through hydrophilic PTFE 0.2 μm filters, 160 μl sample was transferred to wells of a 96‐well polypropylene V‐bottomed collection plate and 40 μl acetonitrile was added to each well. Absorbance readings were taken at 250–500 nm in 10 nm increments. Solubility was calculated at the appropriate λ max with reference to the standard curve.

human TRPC5 = molecular target: T1, human TRPC5 (Homo sapiens, UniProt Q9UL62); test: Intracellular Ca2+ measurement in hTRPC5-TREx cells; format: cell-based; conditions: 10 μM
T1 construct: expressed in transfected cells
T1 sequence (Q9UL62 1-973): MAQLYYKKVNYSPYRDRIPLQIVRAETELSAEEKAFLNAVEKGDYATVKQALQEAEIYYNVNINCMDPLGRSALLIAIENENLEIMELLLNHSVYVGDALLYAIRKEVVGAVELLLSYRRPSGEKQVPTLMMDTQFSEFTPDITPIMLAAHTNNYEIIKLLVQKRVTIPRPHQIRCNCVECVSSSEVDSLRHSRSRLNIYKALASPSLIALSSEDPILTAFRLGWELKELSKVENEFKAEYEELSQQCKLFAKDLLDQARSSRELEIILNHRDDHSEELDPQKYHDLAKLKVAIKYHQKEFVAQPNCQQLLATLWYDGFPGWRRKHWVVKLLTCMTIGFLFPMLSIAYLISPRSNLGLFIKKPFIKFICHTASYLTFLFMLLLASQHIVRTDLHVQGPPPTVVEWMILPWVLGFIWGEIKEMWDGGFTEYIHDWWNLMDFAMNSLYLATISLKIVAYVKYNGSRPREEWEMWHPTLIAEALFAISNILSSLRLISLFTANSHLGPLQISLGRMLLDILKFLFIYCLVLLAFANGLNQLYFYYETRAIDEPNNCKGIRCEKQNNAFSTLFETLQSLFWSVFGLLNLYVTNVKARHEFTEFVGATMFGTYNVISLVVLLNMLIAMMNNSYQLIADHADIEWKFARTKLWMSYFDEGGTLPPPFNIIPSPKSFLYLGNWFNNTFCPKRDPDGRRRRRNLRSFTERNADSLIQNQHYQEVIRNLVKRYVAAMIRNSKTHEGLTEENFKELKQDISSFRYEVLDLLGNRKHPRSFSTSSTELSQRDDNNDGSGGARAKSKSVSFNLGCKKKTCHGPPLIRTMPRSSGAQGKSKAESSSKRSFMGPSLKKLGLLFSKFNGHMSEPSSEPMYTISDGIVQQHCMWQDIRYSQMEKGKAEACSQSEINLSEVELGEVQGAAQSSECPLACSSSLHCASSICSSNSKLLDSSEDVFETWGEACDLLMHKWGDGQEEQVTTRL
Description: HEK T‐REx™ 293 cells stably expressing tetracycline‐regulated human TRPC5 have been described previously (Zeng et al., [2004]). For the TRPC5‐expressing cells, selection was achieved by including 5 μg·ml^−1 blasticidin and 400 μg·ml^−1 zeocin in the cell medium. To induce expression, cells were incubated with 1 μg·ml^−1 tetracycline for 24 h prior to experiments. These cells are referred to as hTRPC5‐TREx.
HEK 293‐TREx cells and their stably transfected derivatives or transiently transfected HEK 293 or HeLa cells were seeded at a density of 7.5 × 10^4 cells per well into poly‐D‐lysine‐coated 96‐well plates. The plates were either commercially pre‐coated with poly‐D‐lysine (Greiner Bio‐One #655946) or (Greiner Bio‐One #655090) were coated in‐house with 35 μl of a 10 μg·ml^−1 poly‐D‐lysine (Bio‐Techne, Cultrex # 3439‐100‐01) in sterile deionised water per well for at least 24 h and rinsed three times with 100 μl per well sterile D‐PBS before addition of cells. HUVECs were seeded into tissue culture‐treated 96‐well plates (Greiner Bio‐One #655090) at a density of either 2.5 × 10^4 cells 24 h before experimentation or 1.25 × 10^4 cells 48 h before experimentation. Cells were incubated with 2 μM Fura‐2‐AM (Molecular Probes™) in the presence of 0.01% (wt./vol.) pluronic F127 (Sigma‐Aldrich #P2443) in standard bath solution (SBS) for 1 h at 37°C. Cells were washed with SBS for 30 min at room temperature. Alternatively, if inhibitors were being tested, these were added at this time, immediately following a wash in SBS. (−)‐Englerin A (Akbulut et al., [2015]) was used in SBS containing 0.01% pluronic acid as a dispersing agent to minimise aggregation of compound. Unless otherwise stated, the final concentration of DMSO was 0.2% (vol./vol). […] Measurements were made at room temperature on a 96‐well fluorescence plate reader (FlexStation 3, Molecular Devices, Sunnyvale, CA, USA) controlled by SoftMax Pro software v7.0.3. […]

Row | solubility at 1.5 h ([1]; universal aqueous buffer, pH 7.4, aqueous buffer, kinetic from dmso stock, lower limit of detection 0.1 µM, read-out: Estimated solubility in universal aqueous buffer) [µM] | SMILES | Solubility in aqueous buffer relative to Yoda1 [1] | Ca2+ response in cells expressing TRPC5 in place of PIEZO1 (human TRPC5)
1 |  | O=C(O)c1ccc(-c2nnc(SCc3c(Cl)cccc3Cl)s2)cc1 [KC159] | at least 160 times | fail to evoke responses
2 |  | O=C([O-])c1ccc(-c2nnc(SCc3c(Cl)cccc3Cl)s2)cc1.[K+] [KC289] | at least 160 times | fail to evoke responses
3 | < 0.1 | Clc1cccc(Cl)c1CSc1nnc(-c2cnccn2)s1 [Yoda1, 2‐[5‐[[(2,6‐dichlorophenyl)methyl]thio]‐1,3,4‐thiadiazol‐2‐yl]pyrazine] |  | fail to evoke responses
